Patent US12466804B2 (BRISTOL-MYERS SQUIBB COMPANY, priority 2019, dated 2025)

target: T1, human LPA1 (Homo sapiens, UniProt Q92633); test: LPA1 functional antagonist assay (LPA-induced calcium flux); format: cell-based; details: not given
T1 construct: expressed in transfected cells; host or cells: Chinese hamster ovary (CHO) cells
Method: The effectiveness of compounds of the present invention as LPA1 inhibitors can be determined in an LPA1 functional antagonist assay as follows:
The cells were then equilibrated to room temperature for 30 minutes before the assay. […] IC50 values were determined by fitting data to a 4-parameter logistic equation (GraphPad Prism, San Diego CA).

T1 sequence (Q92633 whole entry): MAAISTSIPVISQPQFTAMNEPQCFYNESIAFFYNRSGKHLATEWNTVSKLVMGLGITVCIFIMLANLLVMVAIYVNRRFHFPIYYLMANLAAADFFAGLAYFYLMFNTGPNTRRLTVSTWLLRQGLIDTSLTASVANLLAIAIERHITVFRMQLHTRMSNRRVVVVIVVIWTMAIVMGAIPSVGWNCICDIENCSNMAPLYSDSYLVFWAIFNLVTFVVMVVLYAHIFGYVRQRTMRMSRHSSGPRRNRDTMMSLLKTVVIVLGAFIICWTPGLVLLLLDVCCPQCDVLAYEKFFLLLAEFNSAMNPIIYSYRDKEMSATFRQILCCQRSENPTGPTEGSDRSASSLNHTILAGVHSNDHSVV

Work on `CN(CC1CCC1)C(=O)OCc1c(-c2ccc(OCC34CC(C(=O)O)(C3)C4)cn2)nnn1C` [Example 54, 3-(((6-(5-((((cyclobutylmethyl)(methyl)carbamoyl)oxy)methyl)-1-methyl-1H-1,2,3-triazol-4-yl)pyridin-3-yl)oxy)methyl)bicyclo[1.1.1]pentane-1-carboxylic acid] yielded an IC50 of 427 nM.

same assay, conditions: CHO cells overexpressing human LPA1; calcium flux induced by 10 nM LPA; read-out: hLPA1 IC50

Compared with `CCOc1ccnc(NCc2c(-c3ccc(OC[C@@H]4CC[C@H]4C(=O)O)c(C)n3)nnn2C)n1` (racemic) [Example 21, (±)-(1R,2R)-2-(((6-(5-(((4-ethoxy-pyrimidin-2-yl)amino)methyl)-1-methyl-1H-1,2,3-triazol-4-yl)-2-methylpyridin-3-yl)oxy)methyl)cyclobutane-1-carboxylic acid], `Cc1nc(-c2nnn(C)c2CNc2nccc(C(C)C)n2)ccc1OC[C@@H]1CC[C@H]1C(=O)O` (single isomer, unassigned) [Example 24] is 48-fold higher in IC50: 24 nM for the first, 1150 nM for the second.

First: Cc1nc(-c2nnn(C)c2COC(=O)N(C)CC2CCC2)ccc1OCC12CCC(C(=O)O)(C1)C2 [Example 57, 4-(((6-(5-((((cyclobutylmethyl)(methyl)carbamoyl)oxy)methyl)-1-methyl-1H-1,2,3-triazol-4-yl)-2-methylpyridin-3-yl)oxy)methyl)bicyclo[2.1.1]hexane-1-carboxylic acid]
Second: Cc1nc(-c2nnn(C)c2COC(=O)N(C)CC2CCC2)ccc1OC[C@@H]1CC[C@H]1C(=O)O (racemic) [Example 6, (±)-(1R,2R)-2-(((6-(5-((((cyclobutylmethyl)(methyl)carbamoyl)oxy)methyl)-1-methyl-1H-1,2,3-triazol-4-yl)-2-methylpyridin-3-yl)oxy)methyl)cyclobutane-1-carboxylic acid]
The IC50 of the first is 3-fold higher: 82 nM for the first, 27 nM for the second. The second is the more potent here.

Going from `Cc1nc(-c2nnn(C)c2COc2noc(C3CC3)n2)ccc1OC[C@@H]1CC[C@H]1C(=O)O` (racemic) [Example 15, (±)-(1R,2R)-2-(((6-(5-(((5-cyclopropyl-1,2,4-oxadiazol-3-yl)oxy)methyl)-1-methyl-1H-1,2,3-triazol-4-yl)-2-methylpyridin-3-yl)oxy)methyl)cyclobutane-1-carboxylic acid] to `Cc1nc(-c2nnn(C)c2COc2cc(C3CC3)ncn2)ccc1OC[C@@H]1CC[C@H]1C(=O)O` (racemic) [Example 18, (±)-(1R,2R)-2-(((6-(5-(((6-cyclopropyl-pyrimidin-4-yl)oxy)methyl)-1-methyl-1H-1,2,3-triazol-4-yl)-2-methylpyridin-3-yl)oxy)methyl)cyclobutane-1-carboxylic acid], the IC50 falls from 128 nM to 83 nM (1.5-fold).

First: Cc1nc(-c2nnn(C)c2NC(=O)OCC2CC2)ccc1OC[C@H]1CC[C@@H]1C(=O)O (racemic) [Example 59, (±)-(1S,2S)-2-(((6-(5-(((cyclopropyl-methoxy)carbonyl)amino)-1-methyl-1H-1,2,3-triazol-4-yl)-2-methyl-pyridin-3-yl)oxy)methyl)cyclobutane-1-carboxylic acid]
Second: Cc1nc(-c2nnn(C)c2CNC(=O)OCCC2CC2)ccc1OC[C@@H]1CC[C@H]1C(=O)O (racemic) [Example 33, (±)-(1R,2R)-2-(((6-(5-((((2-Cyclopropylethoxy)carbonyl)amino)methyl)-1-methyl-1H-1,2,3-triazol-4-yl)-2-methylpyridin-3-yl)oxy)methyl)cyclobutanecarboxylic acid]
The IC50 of the first is 11-fold higher: 3590 nM for the first, 326 nM for the second.

First: CCc1cc(OCc2c(-c3ccc(OC[C@@H]4CC[C@H]4C(=O)O)c(C)n3)nnn2C)ncn1 (single isomer, unassigned) [Example 12]
Second: COc1cc(OCc2c(-c3ccc(OC[C@@H]4CC[C@H]4C(=O)O)c(C)n3)nnn2C)ncn1 (racemic) [Example 19, (±)-(1R,2R)-2-(((6-(5-(((6-methoxy-pyrimidin-4-yl)oxy)methyl)-1-methyl-1H-1,2,3-triazol-4-yl)-2-methylpyridin-3-yl)oxy)methyl)cyclobutane-1-carboxylic acid]
The IC50 of the first is 1.6-fold lower: 77 nM for the first, 121 nM for the second. The first is the more potent here.

Compared with `Cc1noc(-c2ccc(OCC3CC(C(=O)O)C3)cc2)c1COC(=O)N(C)C1CCCC1` (stereo not shown) [Example 30, 3-((4-(4-(((Cyclopentyl(methyl)carbamoyl)oxy)methyl)-3-methylisoxazol-5-yl)phenoxy)methyl)cyclobutanecarboxylic acid], `Cc1noc(-c2ccc(OC[C@@H]3CC[C@H]3C(=O)O)cc2)c1COC(=O)N(C)C1CCCC1` (racemic) [Example 1, (±)-(1R,2R)-2-((4-(4-(((cyclopentyl(methyl)carbamoyl)oxy)methyl)-3-methylisoxazol-5-yl)phenoxy)methyl)cyclobutane-1-carboxylic acid] is 1.7-fold lower in IC50: 316 nM for the first, 187 nM for the second. The second is the more potent here.

First: Cc1nc(-c2nnn(C)c2Cn2nnc(CC3CC3)n2)ccc1OC[C@H]1CC[C@@H]1C(=O)O (single isomer, unassigned) [Example 39]
Second: Cc1nc(-c2nnn(C)c2Cn2nnc(CC3CC3)n2)ccc1OC[C@@H]1CC[C@H]1C(=O)O (single isomer, unassigned) [Example 38]
The IC50 of the first is 4-fold higher: 250 nM for the first, 63 nM for the second. The second is the more potent here.

`Cc1nc(-c2onc(C)c2CNc2nccc(-c3ccccn3)n2)ccc1OC[C@@H]1CC[C@H]1C(=O)O` (racemic) [Example 5, (±)-(1R,2R)-2-(((2-methyl-6-(3-methyl-4-(((4-(pyridin-2-yl)pyrimidin-2-yl)amino)methyl)isoxazol-5-yl)pyridin-3-yl)oxy)methyl)cyclobutane-1-carboxylic acid] and `Cc1noc(-c2ccc(OC[C@@H]3CC[C@H]3C(=O)O)cn2)c1CNc1nccc(-c2ccccn2)n1` (racemic) [Example 2, (±)-(1R,2R)-2-(((6-(3-methyl-4-(((4-(pyridin-2-yl)pyrimidin-2-yl)amino)methyl)isoxazol-5-yl)pyridin-3-yl)oxy)methyl)cyclobutane-1-carboxylic acid] are within 1.5-fold of each other in IC50: 18 nM for the first, 15.4 nM for the second.

First: CCCCN(C)C(=O)OCc1c(-c2ccc(OC[C@@H]3CC[C@H]3C(=O)O)c(C)n2)nnn1C (racemic) [Example 50, (±)-(1R,2R)-2-(((6-(5-(((butyl(methyl)carbamoyl)oxy)methyl)-1-methyl-1H-1,2,3-triazol-4-yl)-2-methylpyridin-3-yl)oxy)methyl)cyclobutanecarboxylic acid]
Second: Cc1nc(-c2nnn(C)c2COC(=O)N(C)CC2CC2)ccc1OC[C@@H]1CC[C@H]1C(=O)O (racemic) [Example 31, (±)-(1R,2R)-2-(((6-(5-((((Cyclopropylmethyl)(methyl)carbamoyl)oxy)methyl)-1-methyl-1H-1,2,3-triazol-4-yl)-2-methylpyridin-3-yl)oxy)methyl) cyclobutanecarboxylic acid]
The IC50 of the first is 8.4-fold lower: 22 nM for the first, 184 nM for the second.

`Cc1nc(-c2nnn(C)c2CNc2nccc(-c3ccccc3)n2)ccc1OC[C@@H]1CC[C@H]1C(=O)O` (racemic) [Example 35, (±)-(1R,2R)-2-(((2-Methyl-6-(1-methyl-5-(((4-phenylpyrimidin-2-yl)amino)methyl)-1H-1,2,3-triazol-4-yl)pyridin-3-yl)oxy)methyl)cyclobutanecarboxylic acid] and `Cc1nc(-c2nnn(C)c2CNc2nccc(-c3ccccn3)n2)ccc1OC[C@@H]1CC[C@H]1C(=O)O` (racemic) [Example 26, (±)-(1R,2R)-2-(((2-methyl-6-(1-methyl-5-(((4-(pyridin-2-yl)pyrimidin-2-yl)amino)methyl)-1H-1,2,3-triazol-4-yl)pyridin-3-yl)oxy)methyl)cyclobutane-1-carboxylic acid] are within 1.5-fold of each other in IC50: 49 nM for the first, 56 nM for the second.

Going from `Cc1nc(-c2nnn(C)c2CNc2noc(CCC(C)C)n2)ccc1OCC12CC(C(=O)O)(C1)C2` [Example 55, 3-(((6-(5-(((5-isopentyl-1,2,4-oxadiazol-3-yl)amino)methyl)-1-methyl-1H-1,2,3-triazol-4-yl)-2-methylpyridin-3-yl)oxy)methyl)bicyclo[1.1.1]pentane-1-carboxylic acid] to `CC[C@H](C)COC(=O)NCc1c(-c2ccc(OC[C@@H]3CC[C@H]3C(=O)O)c(C)n2)nnn1C` (racemic) [Example 43, (±)-(1R,2R)-2-(((2-methyl-6-(1-methyl-5-(((((S)-2-methyl-butoxy)carbonyl)amino)methyl)-1H-1,2,3-triazol-4-yl)pyridin-3-yl)oxy)methyl)cyclobutane carboxylic acid], the IC50 falls from 1980 nM to 47 nM (42-fold).

Compared with `Cc1nc(-c2nnn(C)c2Cn2nnc(CC3CC3)n2)ccc1OC[C@@H]1CC[C@H]1C(=O)O` (racemic) [Example 36, (±)-(1R,2R)-2-(((6-(5-((5-(Cyclopropylmethyl)-2H-tetrazol-2-yl)methyl)-1-methyl-1H-1,2,3-triazol-4-yl)-2-methylpyridin-3-yl)oxy)methyl)cyclobutane-1-carboxylic acid], `Cc1nc(-c2nnn(C)c2COC(=O)N(C)C2CCCC2)ccc1OC[C@@H]1CC[C@H]1C(=O)O` (racemic) [Example 47, (±)-(1R,2R)-2-(((6-(5-(((cyclopentyl(methyl)carbamoyl)oxy)methyl)-1-methyl-1H-1,2,3-triazol-4-yl)-2-methyl-pyridin-3-yl)oxy)methyl)cyclobutane carboxylic acid] is 3.7-fold lower in IC50: 86 nM for the first, 23 nM for the second.

First: Cc1nc(-c2nnn(C)c2CNC(=O)OCc2ccccc2)ccc1OC[C@@H]1CC[C@H]1C(=O)O (racemic) [Example 32, (±)-(1R,2R)-2-(((6-(5-((((Benzyloxy)carbonyl)amino)methyl)-1-methyl-1H-1,2,3-triazol-4-yl)-2-methylpyridin-3-yl)oxy)methyl)cyclobutanecarboxylic acid]
Second: Cc1nc(-c2nnn(C)c2COC(=O)NC2CCCCC2)ccc1OC[C@@H]1CC[C@H]1C(=O)O (racemic) [Example 45, (±)-(1R,2R)-2-(((6-(5-(((cyclohexylcarbamoyl)oxy)methyl)-1-methyl-1H-1,2,3-triazol-4-yl)-2-methyl-pyridin-3-yl)oxy)methyl)cyclobutane-1-carboxylic acid]
The IC50 of the first is 6.2-fold lower: 70 nM for the first, 435 nM for the second. The first is the more potent here.

For `Cc1nc(-c2nnn(C)c2COC(=O)N(C)CC2CCC2)ccc1O[C@H]1C[C@H](C(=O)O)C1` [Example 9, trans-3-((6-(5-((((cyclobutylmethyl)(methyl)carbamoyl)oxy)methyl)-1-methyl-1H-1,2,3-triazol-4-yl)-2-methylpyridin-3-yl)oxy)cyclobutane-1-carboxylic acid], the IC50 was 278 nM.
